The subject of the experiment is CD8 T cells. The experiment can be described thus: CD8 T cell viability (number of living cells) with or without M21 cells. The format is cell-based, human. As to the method:
Isolated PBMCs, NK cells or CD8 positive cells were plated in Xvivo medium at 1.5*10^5 cells per in 96 well culture plates in the presence of 0.3*10^4 tumor cells where indicated. Cytokine secretion was determined by ELISA, immune cell activation (using Beckman-Coulter Abs CD25-PC5, CD69-PC7), cell viability and numbers by flow cytometry (Beckman-Coulter FC500 or Gallios) using 7-AAD exclusion as criterion for living cells. CD8-positive immune cells were isolated from PBMCs and were incubated with and without compound example 67, either alone or in co-culture with M21 melanoma cells.

For the molecule `CCCCNC(=O)c1ccc2c(c1)N(Cc1ccc(OC(F)(F)F)cc1)C(=O)[C@@H](N)CS2(=O)=O.Cl` [Example 67, (3R)-3-amino-N-butyl-1,1,4-trioxo-5-{[4-(trifluoromethoxy)phenyl]methyl}-2,3,4,5-tetrahydro-1λ^6,5-benzothiazepine-7-carboxamide hydrochloride], the “CD8 T cell viability [Number of Living Cells] average” value is, setting by setting: (0.03 μM, CD8 cells & M21) 22933.00 Number of Living Cells; (0.03 μM, CD8 only) 23523.00 Number of Living Cells; (0.1 μM, CD8 cells & M21) 23942.33 Number of Living Cells; (0.1 μM, CD8 only) 24094.33 Number of Living Cells; (0.3 μM, CD8 cells & M21) 23944.67 Number of Living Cells; (0.3 μM, CD8 only) 23739.00 Number of Living Cells. Moreover, the “CD8 T cell viability [Number of Living Cells] average” value runs as follows: (1 μM, CD8 cells & M21) 24569.67 Number of Living Cells; (1 μM, CD8 only) 23066.67 Number of Living Cells; (3 μM, CD8 cells & M21) 24633.67 Number of Living Cells; (3 μM, CD8 only) 23975.33 Number of Living Cells; (10 μM, CD8 cells & M21) 24006.33 Number of Living Cells; (10 μM, CD8 only) 25522.67 Number of Living Cells. The “number of CD8 T cells; number of tumor cells in the absence of CD8 T cells” value (CD8 / M21 cultures) is recorded as “neither the number of CD8 T cells nor the number of tumor cells in the absence of CD8 T cells was substantially modulated”.

These data come from patent publication US10472341B2, “Bicyclic tetrahydrothiazepine derivatives useful for the treatment of neoplastic and/or infectious diseases” (APEIRON BIOLOGICS AG, priority 2015, dated 2019).
